Data from patent EP4748833A1, “AMPK AGONIST AND USE THEREOF” (priority 2023, dated 2025).
Where two headings read alike, the source gives them in different places.

Molecular target: T1, AMPKα1β1γ1 (Homo sapiens, UniProt Q13131+Q9Y478)
T1 construct: purchased CARNA 02-113
Assay: In vitro assay for AMPK (α1β1γ1) enzyme agonist activity (TR-FRET)
Format: biochemical
Details: for Emax: 1 h, read-out: Top value
Procedure: Test compounds were dissolved in DMSO to prepare 10 mM stock solution, which was then diluted to the predetermined test concentrations using kinase buffer (50 mM HEPES, 1 mM EDTA, 10 mM MgCl2, 0.01% Brij-35, pH = 7.5). Into a 384-well plate were added 5 µL of AMPKα1β1γ1 (CARNA, 02-113), 2.5 µL of the diluted test compound solution, and 2.5 µL of a mixture of Ulight-CRBN and ATP, resulting in the following final concentrations: AMPKα1β1γ1 at 1.6 mg/L, Ulight-CRBN at 5 nM, and ATP at 0.1 mM. The components were mixed evenly, and reacted at room temperature for 1 hour. Subsequently, 5 µL of LANCE Detection Buffer (CR97-100, PerkinElmer) containing 40 mM EDTA was added. After standing for 5 minutes, 5 µL of 4× Eu-anti-phospho-CREB Antibody (TRF0200-M, PerkinElmer) was added, and the mixture was allowed to stand at room temperature for 1 h. The values of samples in each well were read using a microplate reader in TR-FRET mode (excitation wavelength: 320 nm; emission wavelengths: 665 nm and 615 nm). By comparing the values with those of the blank control group (1% DMSO) and the positive control group (1 µM A769662), the relative activity of AMPKα1β1γ1 at each test compound concentration (4.57 nM, 13.72 nM, 41.15 nM, 123.46 nM, 370.37 nM, 1111.11 nM, 3333.33 nM, and 10000 nM) was calculated, with the activity of 1 µM A769662 set as 100%. The data were analysed in GraphPad Prism 9 using a Dose-response-Stimulation four-parameter regression model to obtain the Top and EC50 values for the test compounds. [drawing 522] has a structure of A769662.

[1] = AMPKα1β1γ1 1.6 mg/L, ATP 0.1 mM, 1 hour at room temperature, four-parameter regression, read-out: EC50

T1 sequence (Q13131 whole entry): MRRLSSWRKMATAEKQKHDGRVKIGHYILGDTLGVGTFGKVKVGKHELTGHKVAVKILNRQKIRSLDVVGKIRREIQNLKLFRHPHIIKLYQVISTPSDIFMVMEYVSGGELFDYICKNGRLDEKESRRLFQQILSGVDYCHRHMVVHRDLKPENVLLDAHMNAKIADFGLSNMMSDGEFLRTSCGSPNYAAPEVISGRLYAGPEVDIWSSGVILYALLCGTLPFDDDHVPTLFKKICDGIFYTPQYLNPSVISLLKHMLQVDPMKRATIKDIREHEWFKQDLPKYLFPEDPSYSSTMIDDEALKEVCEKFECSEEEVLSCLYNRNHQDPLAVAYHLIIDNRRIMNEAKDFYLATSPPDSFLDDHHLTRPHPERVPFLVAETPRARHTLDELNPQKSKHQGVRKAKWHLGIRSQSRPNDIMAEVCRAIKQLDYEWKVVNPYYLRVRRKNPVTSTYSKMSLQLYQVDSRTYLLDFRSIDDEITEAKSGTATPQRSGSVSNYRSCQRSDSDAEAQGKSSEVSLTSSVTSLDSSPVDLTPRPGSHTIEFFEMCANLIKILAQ
T1 sequence (Q9Y478 whole entry): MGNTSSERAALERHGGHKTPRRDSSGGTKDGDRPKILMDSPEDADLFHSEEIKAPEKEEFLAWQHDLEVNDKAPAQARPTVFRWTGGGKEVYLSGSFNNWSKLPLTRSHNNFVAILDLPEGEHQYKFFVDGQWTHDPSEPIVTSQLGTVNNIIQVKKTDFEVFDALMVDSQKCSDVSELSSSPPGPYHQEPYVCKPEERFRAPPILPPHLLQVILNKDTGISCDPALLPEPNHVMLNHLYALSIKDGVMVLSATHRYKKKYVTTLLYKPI
T1 sequence (P54619 whole entry partner): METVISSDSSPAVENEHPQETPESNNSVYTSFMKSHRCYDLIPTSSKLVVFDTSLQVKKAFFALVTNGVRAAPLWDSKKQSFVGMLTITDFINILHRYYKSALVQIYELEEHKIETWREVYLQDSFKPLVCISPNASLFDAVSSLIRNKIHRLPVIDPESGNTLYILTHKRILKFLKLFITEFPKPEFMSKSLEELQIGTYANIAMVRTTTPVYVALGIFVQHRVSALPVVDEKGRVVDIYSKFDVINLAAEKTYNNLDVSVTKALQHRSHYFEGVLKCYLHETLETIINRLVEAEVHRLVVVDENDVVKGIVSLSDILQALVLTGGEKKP

With `O=C(NCc1ccco1)c1c(O)[nH]c2cc(Cl)c(-c3ccc(C4(CO)CC4)cc3)cc12` [Compound 31] the Emax was > 100% and the EC50 [1] was 200 to 800 nM.
Work on `O=C(NCc1ccno1)c1c[nH]c2cc(Cl)c(-c3ccc(C4(O)CCC4)cc3)cc12` [Compound 11] yielded an Emax of 70 to 100% and an EC50 [1] of 200 to 800 nM.
In the case of `O=C(Nc1ncc[nH]1)c1c[nH]c2cc(Cl)c(-c3ccc(-c4ccccc4)cc3)cc12` [Compound 13], the Emax is reported as > 100% and the EC50 [1] is reported as > 800 nM.
For `O=C(Nc1ccn[nH]1)c1c[nH]c2cc(Cl)c(-c3ccc(C4(CO)CC4)cc3)cc12` [Compound 23], the Emax was > 100% and the EC50 [1] was < 200 nM.
`COc1ccc(-c2cc3c(C(=O)C(=O)O)c[nH]c3cc2Cl)cc1` [Compound 7] showed an Emax of 70 to 100% and an EC50 [1] of 200 to 800 nM.
With `O=C(NCc1cnoc1)c1c[nH]c2cc(Cl)c(-c3ccc(C4(O)CCC4)cc3)cc12` [Compound 12] the Emax was > 100% and the EC50 [1] was > 800 nM.
`O=C(O)C(=O)c1c[nH]c2cc(Cl)c(-c3ccc(-c4ccccc4)cc3)cc12` [Compound 8] was tested, and the Emax was < 50% and the EC50 [1] was < 200 nM.
For `Cn1ccc2cc(-c3cc4c(C(=O)C(=O)O)c[nH]c4cc3Cl)ccc21` [Compound 5], the Emax was 70 to 100% and the EC50 [1] was < 200 nM.
For `CN(Cc1cccs1)C(=O)c1c[nH]c2cc(Cl)c(-c3ccc(C4(CO)CC4)cc3)cc12` [Compound 25], the EC50 was > 800 nM and the Emax was < 50%.
With `O=C(NCc1ccco1)c1c[nH]c2cc(Cl)c(-c3ccc(C4(CO)CC4)cc3)cc12` [Compound 14] the Emax was > 100% and the EC50 [1] was > 800 nM.
`Cn1ccc2cc(-c3cc4c(C(=O)NCc5ncco5)c(O)[nH]c4cc3Cl)ccc21` [Compound 32] showed an Emax of 70 to 100% and an EC50 [1] of 200 to 800 nM.
For `CN(C(=O)c1c[nH]c2cc(Cl)c(-c3ccc(C4(CO)CC4)cc3)cc12)c1cc[nH]n1` [Compound 27], the EC50 was > 800 nM and the Emax was > 100%.
With `O=C(Nc1ncco1)c1c[nH]c2cc(Cl)c(-c3ccc(-c4ccccc4)cc3)cc12` [Compound 24] the EC50 was > 800 nM and the Emax was > 100%.
With `O=C(Nc1cc[nH]n1)c1c[nH]c2cc(Cl)c(-c3ccc(-c4ccccc4O)cc3)cc12` [Compound 34] the EC50 was 200 to 800 nM and the Emax was > 100%.
With `O=C(O)C(=O)c1c[nH]c2cc(Cl)c(-c3ccc(C4(O)CCC4)cc3)cc12` [Compound 2] the Emax was 70 to 100% and the EC50 [1] was < 200 nM.
For `O=C1Nc2cc(Cl)c(-c3ccc(C4(CO)CC4)cc3)cc2C1=CNCc1ccco1` [Compound 21], the Emax was < 50% and the EC50 [1] was > 800 nM.
In the case of `O=C(NCc1nnn[nH]1)c1c[nH]c2cc(Cl)c(-c3ccc(C4(CO)CC4)cc3)cc12` [Compound 35], the Emax is reported as > 100% and the EC50 [1] is reported as < 200 nM.
For `Cn1ccc2cc(-c3cc4c(C(=O)NCC(=O)O)c(O)[nH]c4cc3Cl)ccc21` [Compound 20], the Emax was > 100% and the EC50 [1] was 200 to 800 nM.
`O=C(NCc1ncco1)c1c[nH]c2cc(Cl)c(-c3ccc(C4(CO)CC4)cc3)cc12` [Compound 16] showed an Emax of 70 to 100% and an EC50 [1] of 200 to 800 nM.
In the case of `O=C(O)C(=O)c1c[nH]c2cc(Cl)c(-c3ccc(C4(CO)CC4)cc3)cc12` [Compound 6], the Emax is reported as > 100% and the EC50 [1] is reported as < 200 nM.
For `O=C(O)C(=O)c1c[nH]c2cc(Cl)c(-c3ccc(-c4ccccc4O)cc3)cc12` [Compound 4], the Emax was 50 to 70% and the EC50 [1] was < 200 nM.
For `O=C(NCC1COC1)c1c[nH]c2cc(Cl)c(-c3ccc(C4(O)CCC4)cc3)cc12` [Compound 10], the Emax was 50 to 70% and the EC50 [1] was > 800 nM.
With `O=C(NCc1ccco1)c1c[nH]c2cc(Cl)c(-c3ccc(-c4ccccc4O)cc3)cc12` [Compound 36] the Emax was 50 to 70% and the EC50 [1] was < 200 nM.
`O=C(NCc1cccs1)c1c[nH]c2cc(Cl)c(-c3ccc(C4(CO)CC4)cc3)cc12` [Compound 15] was tested, and the Emax was > 100% and the EC50 [1] was > 800 nM.
With `COC(=O)C(=O)c1c[nH]c2cc(Cl)c(-c3ccc(C4(CO)CC4)cc3)cc12` [Compound 17] the Emax was 70 to 100% and the EC50 [1] was < 200 nM.
`O=C(Nc1cc[nH]n1)c1c[nH]c2cc(Cl)c(-c3ccc(C4(O)CCC4)cc3)cc12` [Compound 33] was tested, and the Emax was > 100% and the EC50 [1] was 200 to 800 nM.
For `O=C(NCc1ccccn1)c1c[nH]c2cc(Cl)c(-c3ccc(C4(O)CCC4)cc3)cc12` [Compound 9], the Emax was > 100% and the EC50 [1] was > 800 nM.
For `O=C(O)Cc1c[nH]c2cc(Cl)c(-c3ccc(C4(O)CCC4)cc3)nc12` [Compound 1], the Emax was 50 to 70% and the EC50 [1] was > 800 nM.
`Cn1ccc2cc(-c3cc4c(C(=O)NCc5ccco5)c(O)[nH]c4cc3Cl)ccc21` [Compound 19] was tested, and the Emax was > 100% and the EC50 [1] was 200 to 800 nM.
`Cn1ccc2cc(-c3cc4c(cc3Cl)NC(=O)C4(C)C(=O)NCc3ccco3)ccc21` (centres unmarked) [Compound 22] was tested, and the EC50 [1] was > 800 nM.
For `O=C(NCc1ccco1)c1c(O)[nH]c2cc(Cl)c(-c3ccc(-c4ccccc4O)cc3)cc12` [Compound 37], the Emax was > 100% and the EC50 [1] was 200 to 800 nM.
`CNC(=O)C(=O)c1c[nH]c2cc(Cl)c(-c3ccc(C4(CO)CC4)cc3)cc12` [Compound 18] was tested, and the Emax was 50 to 70% and the EC50 [1] was 200 to 800 nM.
With `O=C(O)C(=O)c1c[nH]c2cc(Cl)c(-c3ccc(C4(O)CCC4)cc3)nc12` [Compound 3] the Emax was 50 to 70% and the EC50 [1] was > 800 nM.
